“And” between values parts separate entries of the source, which are not always exact repeats. Equal values may be shown once.
Assay: Thermal stability (residual antibacterial activity)
Type: physicochemical
Details: AMP 10 µg/mL in purified water, agar well diffusion vs MRSA strain 2468, relative to non-treated sample, mean ± SD, triplicate
Method: The AMP was dissolved in sterile purified water and adjusted to a final concentration of 10 µg/mL. The sensitivity of the AMP to temperatures of 60, 80, and 100 °C as well as autoclaving at 121 °C for 15 and 30 min was evaluated. The sensitivity of the AMP to proteolytic enzymes with different digesting characteristics was studied by incubating with a concentration of 1 mg/mL of proteinase K, trypsin, and α-chymotrypsin (Sigma-Aldrich, Warren, MI, USA). Surfactant compatibility of the AMP was examined by exposing the sample to 1% SDS and 1% Triton X-100 (AppliChem GmbH, Darmstadt, Germany). The propensity of the AMP for acid and base hydrolysis was examined by adjusting the pH of the solution to 1.2, 4.5, 6.8, and 7.4. After incubation, the pH of the AMP solution was neutralized to 7.4 before being assessed for antimicrobial activity. Following all treatments, the antibacterial assay using agar well diffusion against the MRSA strain 2468 was conducted in triplicate. The stability profiles are presented as the percentage of the activity relative to the untreated conditions (mean ± SD) and statistical significance was determined by the Student’s t-test at a p-value < 0.05.

In the case of `CC(C)CC(NC(=O)C(N)CCCCN)C(=O)NC(CC(C)C)C(=O)NC(CCCCN)C(=O)NC(CC(=O)O)C(=O)NC(CC(C)C)C(=O)NC(Cc1ccccc1)C(=O)NC(Cc1c[nH]cn1)C(=O)NC(CC(=O)O)C(=O)NC(CC(N)=O)C(=O)O` (single isomer, unassigned) [NNS4-3 AMP], the “% Residual Activity” value (37 °C, 1 h) is reported as 103.19 ± 3.68%, the “% Residual Activity” value (37 °C, 6 h) is reported as 100.00 ± 0.00% and the “% Residual Activity” value (37 °C, 12 h) is reported as 99.61 ± 6.44%. The “% Residual Activity” value (60 °C, 1 h) was 101.82 ± 2.46%, the “% Residual Activity” value (60 °C, 6 h) was 95.27 ± 4.31% and the “% Residual Activity” value (60 °C, 12 h) was 90.47 ± 2.98 %. For the same molecule, the “% Residual Activity” value (80 °C, 1 h) was 97.52 ± 6.21%, the “% Residual Activity” value (80 °C, 6 h) was 41.13 ± 35.62 % and the “% Residual Activity” value (100 °C, 1 h) was 73.05 ± 1.57 %. For the same molecule, the “% Residual Activity” value (100 °C, 6 h) was 0.00 ± 0.00 %, the “% Residual Activity” value (100 °C, 12 h) was 0.00 ± 0.00 % and the “% Residual Activity” value (autoclaving 121 °C, 15 psi, 15 min) was 61% and 61.83 ± 0.74 %. The “% Residual Activity” value (autoclaving 121 °C, 15 psi, 30 min) was 0.00 ± 0.00 %.
